In the supplement of paper PMC10627819:

How the values were obtained:
S. aureus Newman [1] = assay: fitness (endpoint OD595 vs no drug) (fraction); higher = more growth
Method in brief: (§1)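 Fitness expresses the optical density reached at the stationary-phase transition as a fraction of the robust mean of no-drug control wells. It is capped at 1. Measurements were OD595 every 30 min for 14 h at 37 °C after inoculation of 384-well plates at OD595 0.01 (30 µl, or 55 µl for S. pneumoniae), minus the first reading.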

S. pneumoniae D39V [2] = assay: as above
Method in brief: as §1

B. subtilis 168 [3] = assay: as above
Method in brief: as §1

S. aureus DSM 20231 [4] = assay: as above
Method in brief: as §1

S. aureus Newman [5] = assay: Bliss interaction score (quartile over a dose matrix) (fitness difference); higher = more antagonism (negative = synergy)
Method in brief: (§2)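 Each plate was normalised to the robust mean of its own no-drug wells, using OD595 at entry into stationary phase, with values capped at 1. This normalised growth is the fitness value. The Bliss score is the difference between observed and product-expected fitness, with single-drug fitness inferred from the combination data and quartiles taken over technical, biological and donor/recipient replicates.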

S. pneumoniae D39V [6] = assay: as above
Method in brief: as §2

B. subtilis 168 [7] = assay: as above
Method in brief: as §2

S. aureus DSM 20231 [8] = assay: as above
Method in brief: as §2
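For Bliss interaction score (quartile over a dose matrix) in this document: first quartile when negative (synergy) and third quartile when positive (antagonism).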

COc1c(N2C[C@@H]3CCCN[C@@H]3C2)c(F)cc2c(=O)c(C(=O)O)cn(C3CC3)c12 [Moxifloxacin] + CCN(CC)CCOC(=O)c1ccc(N)cc1 [Procaine]
fitness
Conditions | partner 85.5 µg/mL | partner 171 µg/mL | partner 342 µg/mL
B. subtilis 168 [3], first compound 0.0312 µg/mL | 0.0464 | 0.0462 | 0.0422
B. subtilis 168 [3], first compound 0.0625 µg/mL | 0.051 | 0.0447 | 0.0546
B. subtilis 168 [3], first compound 0.125 µg/mL | 0.0477 | 0.041 | 0.0508
B. subtilis 168 [3], first compound 2 µg/mL | 0.0328 | 0.02 | 0.021
B. subtilis 168 [3], first compound 4 µg/mL | 0.0283 | 0.0228 | 0.0275
B. subtilis 168 [3], first compound 8 µg/mL | 0.017 | 0.0132 | 0.0182
S. aureus DSM 20231 [4], first compound 0.0075 µg/mL | 0.781 | 0.876 | 0.898
S. aureus DSM 20231 [4], first compound 0.015 µg/mL | 0.712 | 0.744 | 0.773
S. aureus DSM 20231 [4], first compound 0.03 µg/mL | 0.619 | 0.677 | 0.669
S. aureus Newman [1], first compound 0.0075 µg/mL | 0.771 | 0.757 | 0.763
S. pneumoniae D39V [2], first compound 0.005 µg/mL | ≥ 1 | 0.996 | ≥ 1
S. pneumoniae D39V [2], first compound 0.01 µg/mL | ≥ 1 | 0.986 | 0.974
S. pneumoniae D39V [2], first compound 0.02 µg/mL | 0.966 | 0.929 | 0.874

fitness, one replicate
Conditions | partner 85.5 µg/mL | partner 171 µg/mL | partner 342 µg/mL
S. aureus DSM 20231 [4], first compound 0.06 µg/mL | 0.684 | 0.666 | 0.688
S. aureus DSM 20231 [4], first compound 0.12 µg/mL | 0.481 | 0.468 | 0.492
S. pneumoniae D39V [2], first compound 0.0037 µg/mL | 0.927 | 0.926 | 0.826
S. pneumoniae D39V [2], first compound 0.0075 µg/mL | ≥ 1 | 0.93 | 0.845
S. pneumoniae D39V [2], first compound 0.015 µg/mL | 0.881 | 0.923 | 0.849

Conditions | Bliss interaction score
B. subtilis 168 [7] | -0.015
S. aureus DSM 20231 [8] | -0.0665
S. aureus Newman [5] | 0.0617
S. pneumoniae D39V [6] | 0.0674

COc1c(N2C[C@@H]3CCCN[C@@H]3C2)c(F)cc2c(=O)c(C(=O)O)cn(C3CC3)c12 [Moxifloxacin] + CN1C2=CC=CC=C2N=C3C1=CC=CC3=O [Pyocyanin]
fitness
Conditions | partner 0.325 µg/mL | partner 0.65 µg/mL | partner 1.25 µg/mL | partner 1.3 µg/mL | partner 2.5 µg/mL | partner 5 µg/mL
B. subtilis 168 [3], first compound 0.0312 µg/mL | – | – | 0.0609 | – | 0.0599 | 0.0529
B. subtilis 168 [3], first compound 0.0625 µg/mL | – | – | 0.0538 | – | 0.0598 | 0.057
B. subtilis 168 [3], first compound 0.125 µg/mL | – | – | 0.0466 | – | 0.047 | 0.0468
B. subtilis 168 [3], first compound 2 µg/mL | – | – | 0.0183 | – | 0.0257 | 0.0378
B. subtilis 168 [3], first compound 4 µg/mL | – | – | 0.0241 | – | 0.0221 | 0.0304
B. subtilis 168 [3], first compound 8 µg/mL | – | – | 0.012 | – | 0.0127 | 0.0179
S. aureus DSM 20231 [4], first compound 0.0075 µg/mL | – | – | 0.836 | – | 0.755 | 0.665
S. aureus DSM 20231 [4], first compound 0.015 µg/mL | – | – | 0.743 | – | 0.711 | 0.569
S. aureus DSM 20231 [4], first compound 0.03 µg/mL | – | – | 0.678 | – | 0.706 | 0.567
S. aureus Newman [1], first compound 0.0075 µg/mL | – | – | 0.679 | – | 0.605 | 0.372
S. aureus Newman [1], first compound 0.015 µg/mL | – | – | 0.51 | – | 0.434 | 0.221
S. aureus Newman [1], first compound 0.03 µg/mL | – | – | 0.157 | – | 0.138 | 0.0727
S. pneumoniae D39V [2], first compound 0.005 µg/mL | ≥ 1 | 0.988 | – | 0.797 | – | –
S. pneumoniae D39V [2], first compound 0.01 µg/mL | ≥ 1 | 0.98 | – | 0.828 | – | –
S. pneumoniae D39V [2], first compound 0.02 µg/mL | ≥ 1 | 0.959 | – | 0.788 | – | –

one replicate
Conditions | fitness
S. aureus DSM 20231 [4], first compound 0.06 µg/mL, partner 1.25 µg/mL | 0.671
S. aureus DSM 20231 [4], first compound 0.06 µg/mL, partner 2.5 µg/mL | 0.658
S. aureus DSM 20231 [4], first compound 0.06 µg/mL, partner 5 µg/mL | 0.651
S. aureus DSM 20231 [4], first compound 0.12 µg/mL, partner 1.25 µg/mL | 0.493
S. aureus DSM 20231 [4], first compound 0.12 µg/mL, partner 2.5 µg/mL | 0.514
S. aureus DSM 20231 [4], first compound 0.12 µg/mL, partner 5 µg/mL | 0.47
S. pneumoniae D39V [2], first compound 0.0037 µg/mL, partner 0.325 µg/mL | 0.925
S. pneumoniae D39V [2], first compound 0.0037 µg/mL, partner 0.65 µg/mL | 0.871
S. pneumoniae D39V [2], first compound 0.0075 µg/mL, partner 0.325 µg/mL | 0.948
S. pneumoniae D39V [2], first compound 0.0075 µg/mL, partner 0.65 µg/mL | 0.883
S. pneumoniae D39V [2], first compound 0.015 µg/mL, partner 0.325 µg/mL | 0.911
S. pneumoniae D39V [2], first compound 0.015 µg/mL, partner 0.65 µg/mL | 0.91

Conditions | Bliss interaction score
B. subtilis 168 [7] | -0.0123
S. aureus DSM 20231 [8] | 0.0656
S. aureus Newman [5] | -0.0614
S. pneumoniae D39V [6] | 0.0702

COc1c(N2C[C@@H]3CCCN[C@@H]3C2)c(F)cc2c(=O)c(C(=O)O)cn(C3CC3)c12 [Moxifloxacin] + CN(N=O)C(=O)N[C@@H](C=O)[C@@H](O)[C@H](O)[C@H](O)CO [Streptozotocin]
fitness
Conditions | partner 0.15 µg/mL | partner 0.3 µg/mL | partner 0.6 µg/mL | partner 1.2 µg/mL | partner 2.4 µg/mL | partner 4.8 µg/mL
B. subtilis 168 [3], first compound 0.0312 µg/mL | 0.0402 | 0.04 | 0.0108 | – | – | –
B. subtilis 168 [3], first compound 0.0625 µg/mL | 0.0394 | 0.0297 | 0.0273 | – | – | –
B. subtilis 168 [3], first compound 0.125 µg/mL | 0.0412 | 0.0464 | 0.0221 | – | – | –
S. aureus DSM 20231 [4], first compound 0.0075 µg/mL | 0.75 | 0.715 | 0.614 | – | – | –
S. aureus DSM 20231 [4], first compound 0.015 µg/mL | 0.691 | 0.681 | 0.59 | – | – | –
S. aureus DSM 20231 [4], first compound 0.03 µg/mL | 0.611 | 0.632 | 0.533 | – | – | –
S. aureus Newman [1], first compound 0.0075 µg/mL | 0.69 | 0.635 | 0.392 | – | – | –
S. aureus Newman [1], first compound 0.015 µg/mL | 0.453 | 0.378 | 0.106 | – | – | –
S. aureus Newman [1], first compound 0.03 µg/mL | 0.0433 | 0.0331 | 0.0187 | – | – | –
S. pneumoniae D39V [2], first compound 0.005 µg/mL | – | – | – | 0.94 | 0.951 | 0.943
S. pneumoniae D39V [2], first compound 0.01 µg/mL | – | – | – | 0.951 | 0.95 | 0.928
S. pneumoniae D39V [2], first compound 0.02 µg/mL | – | – | – | 0.919 | 0.875 | 0.895

fitness, one replicate
Conditions | partner 0.15 µg/mL | partner 0.3 µg/mL | partner 0.6 µg/mL | partner 1.2 µg/mL | partner 2.4 µg/mL | partner 4.8 µg/mL
B. subtilis 168 [3], first compound 2 µg/mL | 0.0199 | 0.0131 | 0 | – | – | –
B. subtilis 168 [3], first compound 4 µg/mL | 0.0208 | 0.0015 | 0.0018 | – | – | –
B. subtilis 168 [3], first compound 8 µg/mL | 0.0288 | 0.0107 | 0.0248 | – | – | –
S. aureus DSM 20231 [4], first compound 0.06 µg/mL | 0.653 | 0.639 | 0.605 | – | – | –
S. aureus DSM 20231 [4], first compound 0.12 µg/mL | 0.453 | 0.448 | 0.391 | – | – | –
S. pneumoniae D39V [2], first compound 0.0037 µg/mL | – | – | – | 0.978 | 0.879 | 0.844
S. pneumoniae D39V [2], first compound 0.0075 µg/mL | – | – | – | 0.92 | 0.922 | 0.811
S. pneumoniae D39V [2], first compound 0.015 µg/mL | – | – | – | 0.878 | 0.872 | 0.811

Conditions | Bliss interaction score
B. subtilis 168 [7] | -0.0331
S. aureus DSM 20231 [8] | 0.0189
S. aureus Newman [5] | -0.14
S. pneumoniae D39V [6] | 0.0634
